What is called Ki is a measure of affinity in units of concentration, obtained from inhibition or displacement. High values mean a looser hold on the target, low ones a stronger hold on the target.

The values that follow come from BindingDB's records for doi:10.1124/jpet.103.049619 (University of Kansas, 2003).

Assay [1] concerns the target Histamine H1 receptor (Homo sapiens, UniProt P35367).
The target in assay [2] is Histamine H1 receptor (Cavia porcellus, UniProt P31389).
Sequence of Histamine H1 receptor (Cavia porcellus, UniProt P31389) (P31389 whole entry): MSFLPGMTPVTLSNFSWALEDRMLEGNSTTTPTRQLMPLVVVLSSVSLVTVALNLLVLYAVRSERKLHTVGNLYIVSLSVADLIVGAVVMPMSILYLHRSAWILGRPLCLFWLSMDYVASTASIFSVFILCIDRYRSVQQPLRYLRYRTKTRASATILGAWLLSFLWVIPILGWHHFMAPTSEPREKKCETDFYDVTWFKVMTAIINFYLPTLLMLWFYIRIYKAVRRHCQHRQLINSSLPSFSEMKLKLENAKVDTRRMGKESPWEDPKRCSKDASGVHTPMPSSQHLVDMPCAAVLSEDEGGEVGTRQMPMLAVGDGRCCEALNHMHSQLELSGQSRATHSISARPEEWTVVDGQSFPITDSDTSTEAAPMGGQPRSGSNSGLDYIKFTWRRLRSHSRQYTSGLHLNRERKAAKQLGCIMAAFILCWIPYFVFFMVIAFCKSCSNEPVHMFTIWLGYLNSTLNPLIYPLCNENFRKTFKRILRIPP

Sequence of Histamine H1 receptor (Homo sapiens, UniProt P35367) (P35367 whole entry): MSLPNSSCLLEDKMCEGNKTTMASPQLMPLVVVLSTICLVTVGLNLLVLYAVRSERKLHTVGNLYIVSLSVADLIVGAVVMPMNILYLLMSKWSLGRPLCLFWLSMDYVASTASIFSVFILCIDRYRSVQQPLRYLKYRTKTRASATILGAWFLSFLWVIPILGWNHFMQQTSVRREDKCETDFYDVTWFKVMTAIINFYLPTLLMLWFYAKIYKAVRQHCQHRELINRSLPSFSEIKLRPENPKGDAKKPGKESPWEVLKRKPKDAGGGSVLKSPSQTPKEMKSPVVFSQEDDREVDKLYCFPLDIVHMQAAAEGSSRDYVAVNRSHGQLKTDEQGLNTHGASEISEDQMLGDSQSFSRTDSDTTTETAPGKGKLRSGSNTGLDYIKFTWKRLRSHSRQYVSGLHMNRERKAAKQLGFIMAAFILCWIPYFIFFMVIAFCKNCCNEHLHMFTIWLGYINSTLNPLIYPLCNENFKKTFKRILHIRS

On to `CNCCc1cnc(CCC(c2ccccc2)c2ccccc2)[nH]1` [N-Methyl-2-(3,3-diphenylpropyl)-1H-imidazole-4-(ethanamine)], for which the Ki at Histamine H1 receptor [1] was 370 nM; at Histamine H1 receptor [2], 290 nM.
The like results for `NCCc1c[nH]c(-c2cccc(Cl)c2)n1` [2-(3-Chlorophenyl)histamine] were, in that order, 1780 nM and 600 nM.
The like results for `N=C(NCCCc1c[nH]cn1)NCCC(c1cccc(Cl)c1)c1ccccn1` (stereo unspecified) [BU-E 47] were, in that order, 255 nM and 53.9 nM.
On to `CN(C)CCc1c[nH]c(CCC(c2ccccc2)c2ccccc2)n1` [N,N-Dimethyl-2-(3,3-diphenylpropyl)-1H-imidazole-4-(ethanamine)], for which the inhibitory constant (Ki) came to 400 nM at Histamine H1 receptor [1] and 310 nM on Histamine H1 receptor [2].
The like results for `NCCc1c[nH]c(-c2cccc(Br)c2)n1` [2-[2-(3-bromophenyl)-1H-imidazol-4-yl]ethan-1-amine] were, in that order, 2220 nM and 700 nM.
For `NCCc1c[nH]c(-c2cccc(I)c2)n1` [2-(3-Iodophenyl)histamine], in that order: 1760 nM and 610 nM.
For `NC(=NCCC(c1ccc(F)cc1)c1ccccn1)NCCCc1cnc[nH]1` (stereo unspecified) [CAS_65895], in that order: 353 nM and 33.3 nM.
As for `NCCc1nccs1` [2-(2-aminoethyl)thiazole], affinity on Histamine H1 receptor [2] was put at a Ki of 8490 nM. This counts as single-digit micromolar.
`Cc1ccc(C(=CCN2CCCC2)c2ccccn2)cc1` [CAS_486-12-4] registered a Ki at Histamine H1 receptor [2] of 1.15 nM. This Ki lies about 7400-fold lower than the previous one.
